According to patent US8518906B2, “Rho kinase inhibitors for treatment of mastocytosis and acute myeloid leukemia” (Indiana University Research & Technology Corporation, priority 2011, dated 2013):
Read-outs that look alike come from different tables or passages of the source.

Tests used:
[1] = test system: AKT, ERK, Stat5, PKA and PKC; assay: Activation of AKT, ERK, Stat5, PKA and PKC in oncogene bearing cells, Western blot; format: cell-based, murine
Procedure: Cells were lysed in lysis buffer and centrifuged at 10,000 rpm for 5 min at 4° C. Supernatants were collected and protein concentration was determined using the BCA protein assay (Thermo Fisher Scientific, Rockford, Ill.). Equal amounts of protein extracts were mixed with gel loading buffer and separated on SDS-polyacrylamide gels. After electrophoresis, the proteins were transferred onto nitrocellulose membranes and nonspecific binding was blocked with 5% nonfat dry milk in Tris-buffered saline containing 0.1% Tween-20 (TBS-T). Membranes were then probed with various antibodies overnight at 4° C. on a rocker. After incubation, membranes were washed with TBS-T and incubated with appropriate horseradish peroxidase (HRP)-conjugated secondary antibodies for 1 hour at room temperature. Finally, the proteins on the membranes were detected using SuperSignal West Dura Luminol/Enhancer solution (Thermo Fisher Scientific, Rockford, Ill.) and exposing the membranes to X-ray film.

[2] = test system: 32D cells bearing MIEG3 or KIT, BaF3 cells bearing FLT3; assay: Proliferation (thymidine incorporation), cells bearing MIEG3, KIT or FLT3 with IL-3; format: cell-based, murine; settings: cells bearing MIEG3, KIT or FLT3, in the presence of IL-3
Procedure: (§1) The murine IL-3 dependent and G418 resistant pro-B cell line BaF3 bearing FLT3 and FLT3N51 were cultured in medium containing IMDM supplemented with 10% FBS, G418 (2 mg/mL), and murine IL-3 (5 ng/mL). The Human mast cell leukemia line, bearing the KITV560G as well as KITD816V mutations, HMC1.2 and acute myeloid leukemia (AML) cell line, bearing the FLT3-ITD mutation, MV4-11 were obtained from the American Type Culture Collection (Manassas, Va.) and cultured in medium containing IMDM supplemented with 15% FBS and 1.2 mM monothioglycerol.
IL-3 enhances the growth of these cells.

[3] = test system: primary HSC/Ps bearing FLT3N51; assay: Proliferation, primary HSC/Ps transduced with FLT3N51; format: cell-based, C57BL/6 mice
Procedure: Retroviral supernatants for transduction of 32D and primary HSC/Ps were generated using the Phoenix ecotropic packaging cell line transfected with retroviral vector plasmids using a calcium phosphate transfection kit (Invitrogen, Carlsbad, Calif.). Supernatants were collected 48 hours after transfection and filtered through […] membranes. 32D cells were infected with 2 mL high-titer virus supernatant in the presence of polybrene (8 μg/mL) and IL-3 (10 ng/mL). Low density mononuclear cells (LDMNCs) were suspended in IMDM containing 20% FBS and 1% penicillin/streptomycin, and pre-stimulated in non-tissue culture plates supplemented with SCF (100 ng/mL), FL T3L (50 ng/mL), IL-6 (4 ng/mL), and Tpo (100 ng/mL) for 48 hours prior to retroviral infection on fibronectin fragments. After infection, 32D and primary HSC/Ps bearing the vector, WT or oncogenic receptors were sorted to homogeneity based on EGFP expression and used to perform all experiments.
To validate whether the suppression in growth of oncogene bearing cells by ROCK inhibitors observed in 32D cells also occurs in primary hematopoietic stem and progenitor cells (HSC/Ps), primary HSC/Ps from C57BL/6 mice were transduced with FLT3 or FLT3N51 and analyzed for proliferation in the presence or absence of ROCK inhibitors.

[4] = test system: 32D cells bearing BCR-ABLT315I; assay: Proliferation, 32D cells expressing imatinib-resistant BCR-ABLT315I mutant; format: cell-based, murine
[5] = test system: HMC1.2 cells (KITV560G and KITD816V); assay: Growth of HMC1.2 cells; format: cell-based, Human
Procedure: as §1
(§2) Specifically, the growth of HMC1.2 cells bearing the activating KIT mutation (KITV560G and KITD816V) and MV4-11 cells bearing the activating FLT3 mutation (FLT3-ITD) treated with H-1152 was determined.

MV4-11 cells (FLT3-ITD) = assay: Growth of MV4-11 cells; format: cell-based, Human
Procedure: as §1, §2

[6] = test system: cells derived from AML and mastocytosis patients; assay: Growth (thymidine incorporation) of cells derived from AML and mastocytosis patients; format: cell-based, human
From the text: (§3) Blast cells from the bone marrow of patients with AML were obtained at the time of diagnostic testing. Approval was obtained from the institutional review boards of Indiana University School of Medicine. The buoyant fraction was isolated over Ficoll-Hypaque, and then washed with phosphate-buffered saline (PBS) before processing.
as §2

ROCK = ROCK activity (pMYPT1) in cells derived from AML and mastocytosis patients; format: cell-based, human
From the text: as §3, §2

[7] = test system: cells bearing CHRD814V or CHRD814V-Y719; assay: Constitutive growth of cells bearing CHRD814V or CHRD814V-Y719; format: cell-based
From the text: (§4) Utilizing Chimeric KIT receptors (CHR) as template, we generated the mutant CHRD814V and CHRD814V with none (CHRD814V-F7) or single intracellular tyrosine add-back mutant at 719 (CHRD814V-Y719) using the Quick change Site-Directed Mutagenesis kit (Stratagene, La Jolla, Calif.) and the following primer pair (SEQ ID NO: 2: forward: 5′-[…]-3; SEQ ID NO: 3: reverse: 5′-[…]-3′). All of these mutated CHRD814V receptors were verified by direct sequencing.
(§5) CHRD814V-Y719 is similar to CHRD814V-F7 except that tyrosine residue 719 (the binding site for p85α) is preserved.

[8] = test system: cells bearing CHRD814V-F7; assay: Growth of cells bearing CHRD814V-F7 in the presence of IL-3; format: cell-based; settings: cells bearing CHRD814V-F7, in the presence of IL-3, data not shown
From the text: as §4, §5

[9] = test system: mice transplanted with 32D cells bearing FLT3N51; assay: MPD and survival of mice transplanted with 32D cells bearing FLT3N51; format: in vivo, C3H/HeJ mice; settings: treated for 21 days starting two weeks after transplantation, vs PBS
Procedure: To further determine the efficacy of ROCK inhibitors in treating MPD due to activating mutations in receptor tyrosine kinases, similar pharmacological studies were performed using a different oncogene and a distinct ROCK inhibitor. 32D cells bearing FLT3N51 were transplanted into syngenic C3H/HeJ mice through tail vein. After two weeks of transplantation, mice were treated with PBS (vehicle), H-1152, or fasudil for 21 days and monitored for MPD and survival. […] After 5 weeks of prolonged survival compared to PBS treated mice, H-1152 or fasudil treated mice were sacrificed and further analysis were performed.

[10] = test system: KIT or MIEG3 bearing 32D cells; assay: Cell death (annexin V and 7-AAD), KIT or MIEG3 bearing 32D cells; format: cell-based, murine
Procedure: 2×10^5 cells were plated in 24 well plates in the presence and absence of IL-3 and indicated concentrations of different ROCK inhibitors. Forty eight hours after treatment, cells were washed with PBS and the percentage of cell death was determined by annexin V and 7-AAO staining. Cells were re-suspended in 1× annexin V binding buffer and incubated for 30 min at 4° C. Cells were incubated with 5 μL each of annexin V and 7-AAO for 20 min at room temperature in the dark. After incubation, percentage of apoptotic cells (annexin V and 7-AAO positive) was determined using flow cytometry.
In this Example, the survival of oncogene bearing cells in the presence or absence of ROCK inhibitors was evaluated to determine how ROCK inhibitors might inhibit the growth of oncogene bearing cells.

32D cells bearing KIT = assay: F-actin content, 32D cells bearing KIT with IL-3; format: cell-based, murine; settings: in the presence of IL-3
Procedure: After treatment, cells were fixed with 4% paraformaldehyde in PBS for 15 min and washed with PBS. After fixing, cells were quenched with 0.1 M glycine in PBS for 15 min and washed with PBS. Then, cells were permeabilized with 0.2% Triton X-100 (w/v) in PBS for 10 min and washed with PBS followed by blocking non-specific binding sites with 5% rat serum containing 0.2% BSA in PBS. Cells were stained with FITC-conjugated phalloidin for 30 min, washed with 0.2% BSA in PBS, and analyzed by flow cytometry.

[11] = Procedure: After 48 hours of transplantation, mice were treated with vehicle (PBS) or H-1152 (66 mg/kg body weight) by oral gavage at 12 hours interval for 14 days. In the second study, mice were treated with vehicle, H-1152 (50 mg/kg body weight, oral gavage) or fasudil (25 mg/kg body weight, intraperitoneal) at 24 hour intervals for 21 days. […] After 10 days of transplantation, mice were treated with vehicle, H-1152 (50 mg/kg body weight, oral gavage) or fasudil (25 mg/kg body weight, intraperitoneal) at 24 hour intervals for 21 days. In all studies, mice were closely monitored for MPD and harvested at moribund. Bone marrow, spleen, liver and lungs were fixed in 10% buffered formalin and sections were stained with hematoxylin and eosin for histopathologic analysis.
[12] = human trials for cardiovascular indications; cited from earlier work

Q: Which “activation of AKT, ERK, Stat5, and PKC” value ([1]; Example 1) does the source give for `Cc1cncc2cccc(S(=O)(=O)N3CCCNC[C@@H]3C)c12` [H-1152] here?
A: The value was “no effect”.

Q: What about the “activation of ERK, AKT, Stat5, PKA and PKC” value ([1]; Example 8) of the same molecule?
A: The value was “relatively unperturbed”.

Q: What about the “proliferation (thymidine incorporation)” value [2] of the same molecule?
A: The value was “minimal suppression in proliferation”.

Q: And the “proliferation (thymidine incorporation)” value [3]?
A: The value was “significant reduction in proliferation”.

Q: What about the “growth of cells bearing BCR-ABLT315I” value [4] of the same molecule?
A: The value was “dose dependent suppression in growth”.

Q: What about the “growth of HMC1.2 cells” value [5] of the same molecule?
A: The value was “dose dependent reduction in growth”.

Q: What about the “growth of MV4-11 cells” value (MV4-11 cells (FLT3-ITD)) of the same molecule?
A: The value was “dose dependent reduction in growth”.

Q: And the “growth (thymidine incorporation)” value [6]?
A: The value was “repression in ROCK activity and growth”.

Q: What about the ROCK activity (ROCK) of the same molecule?
A: The ROCK activity was “repression in ROCK activity”.

Q: What about the “constitutive growth (thymidine incorporation)” value [7] of the same molecule?
A: The value was “dose dependent inhibition in constitutive growth”.

Q: And the growth [8]?
A: The growth was “only a moderate suppression in growth”.

Q: What about the “spleen and liver weights” value [9] of the same molecule?
A: The value was “significantly reduced spleen and liver weights”.

Q: What about the survival [9] of the same molecule?
A: The survival was “significantly prolonged the survival”.

Q: And the cell death [10]?
A: Its cell death is 5-10%.

Q: What about the F-actin content (32D cells bearing KIT) of the same molecule?
A: The F-actin content was “no effect on F-actin content”.

Q: And the signs of toxicity ([11]; treated mice)?
A: The signs of toxicity was “no signs of toxicity”.

Q: Which “proliferation (thymidine incorporation)” value [3] does the source give for `O=S(=O)(c1cccc2cnccc12)N1CCCNCC1` [fasudil] here?
A: Its value is “significant reduction in the growth”.

Q: What about the “spleen and liver weights” value [9] of the same molecule?
A: The value was “significantly reduced spleen and liver weights”.

Q: What about the signs of toxicity ([11]; mouse, in vivo) of the same molecule?
A: Its signs of toxicity is “no signs of toxicity”.

Q: And the “toxicity upon ROCK inhibition in vivo” value [12]?
A: Its value is “lack of toxicity”.

Q: With `C[C@@H](N)[C@H]1CC[C@H](C(=O)Nc2ccncc2)CC1` [Y27632] as the molecule, how does the “proliferation (thymidine incorporation)” value [3] read?
A: Its value is “significant reduction in the growth”.
